From patent US6482837B1 (priority 1998, dated 2002)
Read-outs that look alike come from different tables or passages of the source.

Columns and labels:
[1] = tested on: guinea pig bladder; settings: in vivo; cited from earlier work
[2] = tested on: Guinea pig detrusor; format: cell-based
[3] = tested on: lung; settings: iv
[4] = tested on: tracheal rings; format: cell-based, guinea pig
[5] = human, in vivo
[6] = in vivo; cited from earlier work
[7] = target: M3 receptor (Homo sapiens, UniProt P20309); settings: cited from earlier work
Chain of M3 receptor (P20309 whole entry): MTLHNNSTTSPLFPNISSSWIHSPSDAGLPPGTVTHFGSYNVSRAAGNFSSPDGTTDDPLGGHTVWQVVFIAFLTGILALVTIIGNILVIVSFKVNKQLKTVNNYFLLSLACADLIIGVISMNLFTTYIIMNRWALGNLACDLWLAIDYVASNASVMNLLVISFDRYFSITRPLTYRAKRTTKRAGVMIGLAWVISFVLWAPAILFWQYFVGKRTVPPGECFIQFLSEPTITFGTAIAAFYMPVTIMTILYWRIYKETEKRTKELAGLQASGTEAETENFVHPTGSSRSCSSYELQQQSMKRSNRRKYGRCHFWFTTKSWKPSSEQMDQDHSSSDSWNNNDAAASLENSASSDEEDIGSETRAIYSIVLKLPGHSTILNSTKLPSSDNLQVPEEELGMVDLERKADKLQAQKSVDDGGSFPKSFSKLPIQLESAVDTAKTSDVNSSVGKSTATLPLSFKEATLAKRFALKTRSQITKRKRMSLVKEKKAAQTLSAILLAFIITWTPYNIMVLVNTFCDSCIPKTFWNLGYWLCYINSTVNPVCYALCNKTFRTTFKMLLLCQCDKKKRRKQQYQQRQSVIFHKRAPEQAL

[8] = tested on: M3 versus M1 and M2 receptors; settings: cited from earlier work
[9] = tested on: guinea pig bladder; settings: in vivo; cited from earlier work; remark: listed apart in the source
[10] = tested on: muscarinic receptors; settings: human, in vivo, cited from earlier work
[11] = tested on: muscarinic receptors; settings: dog, in vivo; cited from earlier work
[12] = tested on: miniature swine bladder; settings: in vivo
[13] = tested on: muscarinic receptors in heart and submaxillary gland; settings: in vivo, iv; cited from earlier work
[14] = human, in vivo; cited from earlier work

CN(C)CC#CCCC(=O)C(O)(c1ccccc1)C1CCC1 (centres unmarked) [14b, 1-cyclobutyl-7-(dimethylamino)-1-hydroxy-1-phenyl-5-heptyn-2-one]
duration of action relative to oxybutynin [1]: 5 fold

COC(=O)C1=CC[C@@H]2CC[C@H]1N2C [AEME, Anhydroecgonine methyl ester]
recovery of response to ACh after repeated washings [2]: did not recover
response of tissue to 10^−4M ACh [2]: reduced response of tissue
response to a range of ACh concentrations (up to 2×10^−3M) [2]: attenuated
reversal of attenuation by washing [2]: not reversed
safety ([3]; in vivo): wide margin of safety
anticholinergic effects in the lung in vivo [3]: more sustained and dramatic than anticipated
cholinergic agonist activity [4]: lacked cholinergic agonist activity
levels at which antimuscarinic properties on tracheal rings were observed (as low as) [4]: 10^−9 M
sensitization to ACh produced by cocaine at 5×10^−6 M [4]: reduced the sensitization
type of muscarinic activity in vitro [4]: potent non-competitive muscarinic antagonist

O=C1OC2(c3ccc(O)cc3Oc3cc(O)ccc32)c2ccccc21 [fluorescein]
absorbed from the bladder [5]: About 50%

CN1[C@@H]2CC[C@H]1C[C@@H](OC(=O)C(CO)c1ccccc1)C2 (some centres unmarked) [atropine]
accumulation in the heart blocked by preinjection [6]: 89%

O[Si](CCCN1CCCCC1)(c1ccc(F)cc1)C1CCCCC1 (centres unmarked) [p-F-HHSiD]
Ki ([7]; read-out: Ki): 28 nM

3-(4-benzylpiperazinyl)-1,1-diphenyl-1-hydroxy-2-propanone
selective for M3 versus M1 [8]: 18 fold
selective for M3 versus M2 receptors [8]: 242 fold
separation between bladder function and effect on mydriasis [9]: 20 fold
separation between bladder function and effect on salivation [9]: 41 fold

C[N+]12CCC(CC1)C(OC(=O)C(O)(c1ccccc1)c1ccccc1)C2 (centres unmarked) [MeQNB, methyl quinuclidinyl benzilate]
rate constant of nonspecific binding [10]: 0.03 min⁻¹
Kd ([10]; read-out: equilibrium dissociation constant kd): 2 ± 0.5 nM
rate constant k+1 [11]: 1e+07 ± 1.7e+06 M⁻¹ s⁻¹
rate constant k−1 [11]: 4.5e+06 ± 500000 M⁻¹ s⁻¹
Body Temp increase ° C. [12]: 0 °C
Heart rate % increase [12]: 0%
activity relative to oxybutynin ([12]; iv): about 10 fold

COc1ccccc1CNCCCCCCNCCCCCCCCNCCCCCCNCc1ccccc1OC [methoctramine]
Ki [7]: 408 nM

O=C(OC1CCN(CCBr)CC1)C(c1ccccc1)c1ccccc1 [4-DAMP bromo mustard, N-(2-bromoethyl)-4-piperidinyl diphenylacetate]
receptors alkylated in both the heart and submaxillary gland [13]: more than 95%

CC(CC(c1ccccc1)c1ccccc1)NC(C)(C)C (centres unmarked) [terodiline, Terodiline]
Bladder volume at first urge and bladder capacity [14]: increased
micturition frequency and incontinence episodes [14]: reduced
